Where two headings read alike, the source gives them in different places.
Target: T1, ER (Homo sapiens, UniProt P03372)
T1 construct: host or cells: T47D and MCF7 human breast cancer cells
T1 sequence (P03372 1-595): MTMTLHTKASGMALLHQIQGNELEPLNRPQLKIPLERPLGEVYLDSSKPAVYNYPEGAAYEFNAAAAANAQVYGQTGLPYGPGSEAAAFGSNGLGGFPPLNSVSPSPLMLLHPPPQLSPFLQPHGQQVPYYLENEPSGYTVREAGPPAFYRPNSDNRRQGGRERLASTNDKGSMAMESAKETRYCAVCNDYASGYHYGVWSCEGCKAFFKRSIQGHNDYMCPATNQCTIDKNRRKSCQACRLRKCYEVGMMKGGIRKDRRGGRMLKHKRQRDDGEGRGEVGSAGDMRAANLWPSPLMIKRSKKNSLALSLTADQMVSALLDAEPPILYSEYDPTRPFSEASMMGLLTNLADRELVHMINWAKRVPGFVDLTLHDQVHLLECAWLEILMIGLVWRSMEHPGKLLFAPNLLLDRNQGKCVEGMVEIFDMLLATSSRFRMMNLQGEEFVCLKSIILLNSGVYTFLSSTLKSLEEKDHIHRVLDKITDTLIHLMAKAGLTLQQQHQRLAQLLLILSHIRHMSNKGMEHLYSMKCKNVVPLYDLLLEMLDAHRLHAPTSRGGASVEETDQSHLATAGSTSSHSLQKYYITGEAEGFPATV
Experiment: ER degradation activity, in-cell western blot analysis in T47D cells
Format: cell-based
Experimental: ER degradation activity was evaluated in the human breast cancer cell line T47D and MCF7 purchased from the American Type Culture Collection (ATCC), Manassas, VA, and maintained and cultured in Dulbecco's Modified Eagle's medium (DMEM) containing 10% fetal bovine serum, 1 unit/ml of penicillin and 1 μg/ml of streptomycin.
The protocol for the in-cell western blot analysis: a. seed cells in black-sided/clear bottom 96- or 384-well plates at 40,000 or 10,000 cells/well, overnight; b. add diluted compounds (final 0.5% DMSO), 16 hours. […] RT 2 h, gentle shaking. Negative control: cells plus secondary antibodies (no primary antibodies); e. wash ×4 with PBS+0.05-0.1% Tween 20, gentel shaking; f. anti-rabbit-680 and anti-mouse-800 (both 1:1000 in LiCor block+0.05% Tween20, RT 1 h, gentle shaking, no light. LI-COR: 0.2% to reduce background; g. wash×4 with PBS+0.05% Tween 20, gental shaking; h. add 100 μL or 25 μL of PBS to each well and read on CLX plate reader. The relative ER percentage in treated cells were obtained by comparing the values of treated wells to those in untreated and DMSO-treated wells as 100%.

[1] = compounds 16 hours, Table A does not say whether T47D or MCF7, read-out: Potency (DC50)
[2] = 16 hours, Table A does not say which cell line (T47D or MCF7), read-out: Potency (DC50)

O=C1CCC(N2C(=O)c3cc4c(cc3C2=O)CN(CC2COC3(CCN(c5ccc([C@@H]6c7ccc(O)cc7CC[C@@H]6c6ccccc6)cc5)CC3)C2)C4)C(=O)N1 (stereo partly drawn) [E 515, 2-(2,6-dioxopiperidin-3-yl)-6-((8-(4-((1R,2S)-6-hydroxy-2-phenyl-1,2,3,4-tetrahydronaphthalen-1-yl)phenyl)-1-oxa-8-azaspiro[4.5]decan-3-yl)methyl)-6,7-dihydropyrrolo[3,4-f]isoindole-1,3(2H,5H)-dione]
DC50 [1]: 10 to 100 nM

O=C1CCC(N2Cc3cc4c(cc3C2=O)CN(C(=O)CN2CCC3(CC2)CCN(c2ccc([C@@H]5c6ccc(O)cc6CC[C@@H]5c5ccccc5)cc2)CC3)C4)C(=O)N1 (stereo partly drawn) [E 354, 3-(6-(2-(9-(4-((1R,2S)-6-hydroxy-2-phenyl-1,2,3,4-tetrahydronaphthalen-1-yl)phenyl)-3,9-diazaspiro[5.5]undecan-3-yl)acetyl)-1-oxo-3,5,6,7-tetrahydropyrrolo[3,4-f]isoindol-2(1H)-yl)piperidine-2,6-dione]
DC50 [2]: < 10 nM

C[C@H]1Cc2c([nH]c3ccccc23)[C@H](c2c(F)cc(N3CC4(CCN(C(=O)CN5Cc6cc7c(cc6C5)C(=O)N(C5CCC(=O)NC5=O)C7)CC4)C3)cc2F)N1CC(F)F (stereo in doubt) [E 85, 3-(6-(2-(2-(4-((1S,3S)-2-(2,2-difluoroethyl)-3-methyl-2,3,4,9-tetrahydro-1H-pyrido[3,4-b]indol-1-yl)-3,5-difluorophenyl)-2,7-diazaspiro[3.5]nonan-7-yl)-2-oxoethyl)-1-oxo-3,5,6,7-tetrahydropyrrolo[3,4-f]isoindol-2(1H)-yl)piperidine-2,6-dione]
DC50 [2]: < 10 nM

C[C@@H]1Cc2c([nH]c3ccccc23)[C@@H](c2c(F)cc(N3CCC(C(=O)N4CCC(CN5Cc6cc7c(cc6C5)C(=O)N(C5CCC(=O)NC5=O)C7=O)CC4)CC3)cc2F)N1CC(F)F (stereo partly drawn) [E 233, 6-((1-(1-(4-((1R,3R)-2-(2,2-difluoroethyl)-3-methyl-2,3,4,9-tetrahydro-1H-pyrido[3,4-b]indol-1-yl)-3,5-difluorophenyl)piperidine-4-carbonyl)piperidin-4-yl)methyl)-2-(2,6-dioxopiperidin-3-yl)-6,7-dihydropyrrolo[3,4-f]isoindole-1,3(2H,5H)-dione]
DC50 [2]: > 100 nM

C[C@@H]1Cc2c([nH]c3ccccc23)[C@@H](c2c(F)cc(N3CCC4(CC3)CN(C(=O)CN3Cc5cc6c(cc5C3)C(=O)N(C3CCC(=O)NC3=O)C6=O)C4)cc2F)N1CC(F)(F)F (stereo partly drawn) [E 227, 6-(2-(7-(3,5-difluoro-4-((1R,3R)-3-methyl-2-(2,2,2-trifluoroethyl)-2,3,4,9-tetrahydro-1H-pyrido[3,4-b]indol-1-yl)phenyl)-2,7-diazaspiro[3.5]nonan-2-yl)-2-oxoethyl)-2-(2,6-dioxopiperidin-3-yl)-6,7-dihydropyrrolo[3,4-f]isoindole-1,3(2H,5H)-dione]
DC50 [2]: 10 to 100 nM

O=C1CCC(N2C(=O)c3cc4c(cc3C2=O)CN(C(=O)CN2CC3(CCN(c5ccc([C@@H]6c7ccc(O)cc7CC[C@@H]6c6ccccc6)cc5)CC3)C2)CCC4)C(=O)N1 (mixture of isomers) [E 168, rac-2-(2,6-dioxopiperidin-3-yl)-6-(2-(7-(4-((1R,2S)-6-hydroxy-2-phenyl-1,2,3,4-tetrahydronaphthalen-1-yl)phenyl)-2,7-diazaspiro[3.5]nonan-2-yl)acetyl)-6,7,8,9-tetrahydroazepino[3,4-f]isoindole-1,3(2H,5H)-dione]
DC50 [2]: > 100 nM

C[C@@H]1Cc2cc(O)ccc2[C@@H](c2c(F)cc(N3CCC4(CC3)CN(C(=O)CN3Cc5cc6c(cc5C3)C(=O)N(C3CCC(=O)NC3=O)C6)C4)cc2F)N1CC(F)F (stereo partly shown) [E 35]
DC50 [2]: < 10 nM

C[C@@H]1Cc2c([nH]c3ccccc23)[C@@H](c2c(F)cc(CN3CCC4(CCC(CN5Cc6cc7c(cc6C5)C(=O)N(C5CCC(=O)NC5=O)C7=O)CC4)CC3)cc2F)N1CC(F)F (stereo partly drawn) [E 380, 6-((3-(4-((1R,3R)-2-(2,2-difluoroethyl)-3-methyl-2,3,4,9-tetrahydro-1H-pyrido[3,4-b]indol-1-yl)-3,5-difluorobenzyl)-3-azaspiro[5.5]undecan-9-yl)methyl)-2-(2,6-dioxopiperidin-3-yl)-6,7-dihydropyrrolo[3,4-f]isoindole-1,3(2H,5H)-dione]
DC50 [2]: > 100 nM

CN(C1CCC(N2Cc3cc4c(cc3C2)C(=O)N(C2CCC(=O)NC2=O)C4=O)CC1)C1CCN(c2ccc([C@@H]3c4ccc(O)cc4CC[C@@H]3c3ccccc3)cc2)CC1 (stereo partly drawn) [E 324, 2-(2,6-dioxopiperidin-3-yl)-6-(4-((1-(4-((1R,2S)-6-hydroxy-2-phenyl-1,2,3,4-tetrahydronaphthalen-1-yl)phenyl)piperidin-4-yl)(methyl)amino)cyclohexyl)-6,7-dihydropyrrolo[3,4-f]isoindole-1,3(2H,5H)-dione]
DC50 [2]: > 100 nM

O=C1CCC(N2C(=O)c3cc4c(cc3C2=O)CN(CC2CN(C(=O)C3CCN(c5ccc([C@@H]6c7ccc(O)cc7CC[C@@H]6c6ccccc6)cc5)CC3)C2)C4)C(=O)N1 (mixture of isomers) [E 16, Rac-2-(2,6-dioxopiperidin-3-yl)-6-((1-(1-(4-((1R,2S)-6-hydroxy-2-phenyl-1,2,3,4-tetrahydronaphthalen-1-yl)phenyl)piperidine-4-carbonyl)azetidin-3-yl)methyl)-6,7-dihydropyrrolo[3,4-f]isoindole-1,3(2H,5H)-dione]
DC50 [2]: 10 to 100 nM

O=C1CCC(N2Cc3cc4c(cc3C2=O)CN(C(=O)[C@H]2CC[C@H](N3CC(Nc5ccc([C@@H]6c7ccc(O)cc7CC[C@@H]6c6ccccc6)cc5)C3)CC2)C4)C(=O)N1 (single isomer, unassigned) [E 360]
DC50 [2]: < 10 nM

O=C1CCC(N2C(=O)c3cc4c(cc3C2=O)CN(CC(=O)N2CCC3(CC2)CN(C(=O)c2ccc([C@@H]5c6ccc(O)cc6CC[C@@H]5c5ccccc5)cc2)C3)C4)C(=O)N1 (stereo partly drawn) [E 496, 2-(2,6-dioxopiperidin-3-yl)-6-(2-(2-(4-((1R,2S)-6-hydroxy-2-phenyl-1,2,3,4-tetrahydronaphthalen-1-yl)benzoyl)-2,7-diazaspiro[3.5]nonan-7-yl)-2-oxoethyl)-6,7-dihydropyrrolo[3,4-f]isoindole-1,3(2H,5H)-dione]
DC50 [1]: > 100 nM

O=C1CCC(N2C(=O)c3cc4c(cc3C2=O)CN(CC(=O)N2CCC3(CC2)CCN(c2ccc([C@@H]5c6ccc(O)cc6CC[C@@H]5c5ccccc5)cn2)CC3)C4)C(=O)N1 (mixture of isomers) [E 297, Rac-2-(2,6-dioxopiperidin-3-yl)-6-(2-(9-(5-((1S,2S)-6-hydroxy-2-phenyl-1,2,3,4-tetrahydronaphthalen-1-yl)pyridin-2-yl)-3,9-diazaspiro[5.5]undecan-3-yl)-2-oxoethyl)-6,7-dihydropyrrolo[3,4-f]isoindole-1,3(2H,5H)-dione]
DC50 [2]: > 100 nM

C[C@@H]1Cc2c([nH]c3ccccc23)[C@@H](c2c(F)cc(N3CC4(CN(C(=O)CN5Cc6cc7c(cc6C5)C(=O)N(C5CCC(=O)NC5=O)C7=O)C4)C3)cc2F)N1CC(F)F (stereo partly drawn) [E 82, 6-(2-(6-(4-((1R,3R)-2-(2,2-difluoroethyl)-3-methyl-2,3,4,9-tetrahydro-1H-pyrido[3,4-b]indol-1-yl)-3,5-difluorophenyl)-2,6-diazaspiro[3.3]heptan-2-yl)-2-oxoethyl)-2-(2,6-dioxopiperidin-3-yl)-6,7-dihydropyrrolo[3,4-f]isoindole-1,3(2H,5H)-dione]
DC50 [2]: < 10 nM

C[C@@H]1Cc2cc(O)ccc2[C@@H](c2c(F)cc(C(=O)N3CC4(CCN(C(=O)CN5Cc6cc7c(cc6C5)C(=O)N(C5CCC(=O)NC5=O)C7=O)CC4)C3)cc2F)N1CC(F)F (stereo partly drawn) [E 457, 6-(2-(2-(4-((1S,3R)-2-(2,2-difluoroethyl)-6-hydroxy-3-methyl-1,2,3,4-tetrahydroisoquinolin-1-yl)-3,5-difluorobenzoyl)-2,7-diazaspiro[3.5]nonan-7-yl)-2-oxoethyl)-2-(2,6-dioxopiperidin-3-yl)-6,7-dihydropyrrolo[3,4-f]isoindole-1,3(2H,5H)-dione]
DC50 [1]: 10 to 100 nM

O=C1CCC(N2C(=O)c3cc4c(cc3C2=O)CN(C(=O)CN2CCC3(CC2)CCN(c2ccc([C@@H]5c6ccc(O)cc6CC[C@@H]5c5ccccc5)cc2F)C3)C4)C(=O)N1 (mixture of isomers) [E 154, Rac-2-(2,6-dioxopiperidin-3-yl)-6-(2-(2-(2-fluoro-4-((1R,2S)-6-hydroxy-2-phenyl-1,2,3,4-tetrahydronaphthalen-1-yl)phenyl)-2,8-diazaspiro[4.5]decan-8-yl)acetyl)-6,7-dihydropyrrolo[3,4-f]isoindole-1,3(2H,5H)-dione]
DC50 [2]: > 100 nM
